Laboratory results published in patent US20220402862A1 (Intellia Therapeutics, Inc., priority 2019, published 2022).

Assays:
[1] = pKa measurement of unformulated amine lipid (fluorescence, method of Jayaraman et al.); type: physicochemical; details: 100 μM in 0.1 M phosphate buffer, pH 2.0-12.0
Protocol: The pKa of each amine lipid was determined according to the method in Jayaraman, et al. (Angewandte Chemie, 2012) with the following adaptations. […] Lipid was diluted to 100 μM in 0.1 M phosphate buffer (Boston Bioproducts) where the pH ranged from 2.0-12.0. Fluorescence intensity was measured using excitation and emission wavelengths of 321 nm and 448 nm.

[2] = RNA encapsulation efficiency of LNPs (Ribogreen fluorescence assay); type: physicochemical; details: LNP
Protocol: A fluorescence-based assay (Ribogreen®, ThermoFisher Scientific) is used to determine total RNA concentration and free RNA. Encapsulation efficiency is calculated as (Total RNA-Free RNA)/Total RNA. LNP samples are diluted appropriately with 1× TE buffer containing 0.2% Triton-X 100 to determine total RNA or 1× TE buffer to determine free RNA. Standard curves are prepared by utilizing the starting RNA solution used to make the compositions and diluted in 1× TE buffer +/− 0.2% Triton-X 100. Diluted RiboGreen® dye (according to the manufacturer's instructions) is then added to each of the standards and samples and allowed to incubate for approximately 10 minutes at room temperature, in the absence of light. A SpectraMax M5 Microplate Reader (Molecular Devices) is used to read the samples with excitation, auto cutoff and emission wavelengths set to 488 nm, 515 nm, and 525 nm respectively. Total RNA and free RNA are determined from the appropriate standard curves.
Encapsulation efficiency is calculated as (Total RNA-Free RNA)/Total RNA. The same procedure may be used for determining the encapsulation efficiency of a DNA-based cargo component. In a fluorescence-based assay, for single-strand DNA Oligreen Dye may be used, and for double-strand DNA, Picogreen Dye. Alternatively, the total RNA concentration can be determined by a reverse-phase ion-pairing (RP-IP) HPLC method. Triton X-100 is used to disrupt the LNPs, releasing the RNA. The RNA is then separated from the lipid components chromatographically by RP-IP HPLC and quantified against a standard curve using UV absorbance at 260 nm.

[3] = Dynamic light scattering of LNPs: Z-average diameter, number average diameter, PDI; type: physicochemical; details: LNP
Protocol: Dynamic Light Scattering (“DLS”) is used to characterize the polydispersity index (“PDI”) and size of the LNPs of the present disclosure. DLS measures the scattering of light that results from subjecting a sample to a light source. PDI, as determined from DLS measurements, represents the distribution of particle size (around the mean particle size) in a population, with a perfectly uniform population having a PDI of zero.
LNP compositions are analyzed for average particle size, polydispersity index (PDI), total RNA content, encapsulation efficiency of RNA, and zeta potential. LNP compositions may be further characterized by lipid analysis, AF4-MALS, NTA, and/or cryo-EM. Average particle size and polydispersity are measured by dynamic light scattering (DLS) using a Malvern Zetasizer DLS instrument or Wyatt NanoStar. LNP samples were diluted with PBS buffer prior to being measured by DLS. Z-average diameter which is an intensity-based measurement of average particle size is reported along with number average diameter and PDI. A Malvern Zetasizer or Wyatt NanoStar instrument is also used to measure the zeta potential of the LNP. Samples are diluted 1:17 (50 μL into 800 μL) in 0.1× PBS, pH 7.4 prior to measurement.

Transthyretin (TTR) = assay: Serum TTR ELISA in mice after LNP dosing; type: in vivo, CD-1 female mice; details: guide G282 experiments; for Serum TTR % TSS: mouse serum TTR relative to TSS control; for Serum TTR: mouse serum, ELISA
Protocol: CD-1 female mice ranging from 6-10 weeks of age were used in each study. Animals were weighed and grouped according to body weight for preparing dosing solutions based on group average weight. LNPs were dosed via the lateral tail vein in a volume of 0.2 mL per animal (approximately 10 mL per kilogram body weight). The animals were periodically observed for adverse effects for at least 24 hours post dose. For studies measuring in vivo editing in liver, CD-1 female mice were dosed at 0.1 mg/kg unless otherwise noted. Animals were euthanized at 6 or 7 days by ex sanguination via cardiac puncture under isoflurane anesthesia. Liver tissue was collected from each animal for DNA extraction and analysis. Blood was collected into serum separator tubes or into tubes containing buffered sodium citrate for plasma as described herein. Cohorts of mice were measured for editing by Next-Generation Sequencing (NGS).
Blood was collected and the serum was isolated as indicated. The total mouse TTR serum levels were determined using a Mouse Prealbumin (Transthyretin) ELISA Kit (Aviva Systems Biology, Cat. OKIA00111). Briefly, sera were serial diluted with kit sample diluent to a final dilution of 10,000-fold for 0.1 mg/kg dose and final dilutions of 10,000-fold and of 2,500-fold for 0.3 mg/kg. This diluted sample was then added to the ELISA plates and the assay was carried out according to the manufacturer's directions.

[4] = sg:mRNA 1:1, N/P about 6, amine lipid/DSPC/cholesterol/PEG-2k-DMG 50/9/38/3, Table 2, Experiments 2-20
[5] = sg:mRNA 1:1, N/P about 6, 50/9/38/3, Table 2, Experiments 2-20
[6] = sg:mRNA 1:1.3, N/P about 6, 50/9/38/3, Table 2, Experiment 1

| pKa [1] | SMILES | Serum TTR % TSS (Transthyretin (TTR)) [%] | Serum TTR (Transthyretin (TTR)) [µg/mL] | further results |
| --- | --- | --- | --- | --- |
| 7.39 | CCCCC/C=C\C/C=C\CCCCCCCC(=O)OCC(COC(=O)CCC(OCCCCCCCC)OCCCCCCCC)COC(=O)NCCN(C)CC (stereo not shown) [Compound 35, 3-((4,4-bis(octyloxy)butanoyl)oxy)-2-((((2-(ethyl(methyl)amino)ethyl)carbamoyl)oxy)methyl)propyl (9Z,12Z)-octadeca-9,12-dienoate] | – | – | – |
| 6.03 | CCCCC/C=C\C/C=C\CCCCCCCC(=O)OCC(COC(=O)CCC(OCCCCCCCC)OCCCCCCCC)COC(=O)N(C)CCN(CC)CC (stereo not shown) [Compound 33, 3-((4,4-bis(octyloxy)butanoyl)oxy)-2-((((2-(diethylamino)ethyl)(methyl)carbamoyl)oxy)methyl)propyl (9Z,12Z)-octadeca-9,12-dienoate] | – | – | – |
| 8.4 | CCCCC/C=C\C/C=C\CCCCCCCC(=O)OCC(COC(=O)CCC(OCCCCCCCC)OCCCCCCCC)COC(=O)NCCN1CCC(O)CC1 (stereo not shown) [Compound 49, 3-((4,4-bis(octyloxy)butanoyl)oxy)-2-((((2-(4-hydroxypiperidin-1-yl)ethyl)carbamoyl)oxy)methyl)propyl (9Z,12Z)-octadeca-9,12-dienoate] | – | – | – |
| 6.65 | CCCCCCCCCCOC(=O)CCCCCCCC(=O)OCC(COC(=O)CCCCCC(=O)OC(CCCCCCCC)CCCCCCCC)COC(=O)NCCN(CC)CC (stereo not shown) [Compound 81, 1-decyl 9-(3-(((2-(diethylamino)ethyl)carbamoyl)oxy)-2-(((7-(heptadecan-9-yloxy)-7-oxoheptanoyl)oxy)methyl)propyl) nonanedioate] | – | – | – |
| 6.11 | CCCCCCCCCCOC(=O)CCCCCCCC(=O)OCC(COC(=O)CCC(OCCCCCCC)OCCCCCCC)COC(=O)OCCCN(CC)CC (stereo not shown) [Compound 78, 1-(3-((4,4-bis(heptyloxy)butanoyl)oxy)-2-((((3-(diethylamino)propoxy)carbonyl)oxy)methyl)propyl) 9-decyl nonanedioate] | – | – | – |
| 6.06 | CCCCC/C=C\C/C=C\CCCCCCCC(=O)OCC(COC(=O)CCC(OCCCCCCCC)OCCCCCCCC)COC(=O)C1(C)CCN(C)C1 (stereo not shown) [Compound 30, 3-((4,4-bis(octyloxy)butanoyl)oxy)-2-((((9Z,12Z)-octadeca-9,12-dienoyl)oxy)methyl)propyl 1,3-dimethylpyrrolidine-3-carboxylate] | – | – | – |
| 5.2 | CCCCC/C=C\C/C=C\CCCCCCCC(=O)OCC(COC(=O)CCC(OCCCCCCCC)OCCCCCCCC)COC(=O)OCC1CN(CC)C1 (stereo not shown) [Compound 50, 3-((4,4-bis(octyloxy)butanoyl)oxy)-2-(((((1-ethylazetidin-3-yl)methoxy)carbonyl)oxy)methyl)propyl (9Z,12Z)-octadeca-9,12-dienoate] | – | – | – |
| 7.84 | CCCCC/C=C\C/C=C\CCCCCCCC(=O)OCC(COC(=O)CCC(OCCCCCCCC)OCCCCCCCC)COC(=O)NCCN(C)C (stereo not shown) [Compound 34, 3-((4,4-bis(octyloxy)butanoyl)oxy)-2-((((2-(dimethylamino)ethyl)carbamoyl)oxy)methyl)propyl (9Z,12Z)-octadeca-9,12-dienoate] | – | – | – |
| – | CCCCC/C=C\C/C=C\CCCCCCCC(=O)OCC(COC(=O)CCC(OCCCCCCCC)OCCCCCCCC)COC(=O)OCCCCN1CCCC1 (stereo not shown) [Compound 13, 3-((4,4-bis(octyloxy)butanoyl)oxy)-2-((((4-(pyrrolidin-1-yl)butoxy)carbonyl)oxy)methyl)propyl (9Z,12Z)-octadeca-9,12-dienoate] | 93 | 837 | Encapsulation (%) [2, 4]: 97%; Number mean (nm) [3, 5]: 74.6 nm; PDI [3, 5]: 0.013; Z-avg (nm) [3, 5]: 91.12 nm |
| – | CCCCC/C=C\C/C=C\CCCCCCCC(=O)OCC(COC(=O)CCC(OCCCCCCCC)OCCCCCCCC)COC(=O)OCCCN1CCCCCC1 (stereo not shown) [Compound 23, 3-(((3-(azepan-1-yl)propoxy)carbonyl)oxy)-2-(((4,4-bis(octyloxy)butanoyl)oxy)methyl)propyl (9Z,12Z)-octadeca-9,12-dienoate] | 83 | 716 | Encapsulation (%) [2, 4]: 95%; Number mean (nm) [3, 5]: 56.62 nm; PDI [3, 5]: 0.068; Z-avg (nm) [3, 5]: 74.78 nm |
| 8.9 | CCCCC/C=C\C/C=C\CCCCCCCC(=O)OCC(COC(=O)CCC(OCCCCCCCC)OCCCCCCCC)COC(=O)NCCCN1CCC(O)CC1 (stereo not shown) [Compound 46, 3-((4,4-bis(octyloxy)butanoyl)oxy)-2-((((3-(4-hydroxypiperidin-1-yl)propyl)carbamoyl)oxy)methyl)propyl (9Z,12Z)-octadeca-9,12-dienoate] | – | – | – |
| – | CCCCC/C=C\C/C=C\CCCCCCCC(=O)OCC(COC(=O)CCC(OCCCCCCCC)OCCCCCCCC)COC(=O)OCCCN1CCCC1 (stereo not shown) [Compound 3, 3-((4,4-bis(octyloxy)butanoyl)oxy)-2-((((3-(pyrrolidin-1-yl)propoxy)carbonyl)oxy)methyl)propyl (9Z,12Z)-octadeca-9,12-dienoate] | 105 | 1297 | Encapsulation (%) ([2]; sg:mRNA 1:1.3, N/P about 6, amine lipid/DSPC/cholesterol/PEG-2k-DMG 50/9/38/3, Table 2, Experiment 1): 91%; Number mean (nm) [3, 6]: 61.67 nm; PDI [3, 6]: 0.079; Z-avg (nm) [3, 6]: 86.16 nm |
| – | CCCCC/C=C\C/C=C\CCCCCCCC(=O)OCC(COC(=O)CCC(OCCCCCCCC)OCCCCCCCC)COC(=O)OCCC(C)N(C)C (stereo not shown) [Compound 22, 3-((4,4-bis(octyloxy)butanoyl)oxy)-2-((((3-(dimethylamino)butoxy)carbonyl)oxy)methyl)propyl (9Z,12Z)-octadeca-9,12-dienoate] | 61 | 634 | Encapsulation (%) [2, 4]: 98%; Number mean (nm) [3, 5]: 73.96 nm; PDI [3, 5]: 0.004; Z-avg (nm) [3, 5]: 89.43 nm |
| – | CCCCC/C=C\C/C=C\CCCCCCCC(=O)OCC(COC(=O)CCC(OCCCCCCCC)OCCCCCCCC)COC(=O)OC1CCN(CC)CC1 (stereo not shown) [Compound 17, 3-((4,4-bis(octyloxy)butanoyl)oxy)-2-(((((1-ethylpiperidin-4-yl)oxy)carbonyl)oxy)methyl)propyl (9Z,12Z)-octadeca-9,12-dienoate] | 70 | 727 | Encapsulation (%) [2, 4]: 98%; Number mean (nm) [3, 5]: 56.58 nm; PDI [3, 5]: 0.037; Z-avg (nm) [3, 5]: 70.97 nm |
| 8.6 | CCCCC/C=C\C/C=C\CCCCCCCC(=O)OCC(COC(=O)CCC(OCCCCCCCC)OCCCCCCCC)COC(=O)NCC1CCN(C)C1 (stereo not shown) [Compound 43, 3-((4,4-bis(octyloxy)butanoyl)oxy)-2-(((((1-methylpyrrolidin-3-yl)methyl)carbamoyl)oxy)methyl)propyl (9Z,12Z)-octadeca-9,12-dienoate] | – | – | – |
